From a melting point compilation (Tetko et al.; mined from patent text by program, amines drawn as free bases though some values may be those of a salt)

melting point [°C]	SMILES
153 to 154	CCOC(=O)c1c(CCl)nc2cc(OC)c(OC)cc2c1-c1ccc(Cl)cc1
87	Cc1ccc(C)c(-c2nsc3ccccc23)c1
75 to 77	COc1ccccc1N1CCN(CCN(CCCN2CC=C(c3c[nH]c4cc(F)ccc34)CC2)C(C)=O)CC1
173 to 179	CCC/C(=C\C=O)c1ccc2c(c1)C(CC)(CC)OC(=O)N2
209 to 211	CCOCc1nc2c(N)nc3cc(OCC(=O)N4CCOCC4)ccc3c2n1CC(C)(C)O
137 to 138	CO[C@H]1CC[C@H](N(C)C(=S)c2ccc3nonc3c2)CC1
45 to 46	CC(=O)Nc1cc(C)nn1C
268 to 271	ON=C1c2ccccc2-c2c1c(-n1ccnc1)nc1ccc(Br)cc21
138 to 140	OCc1c(Cl)ccc2nnsc12
122 to 126	CC1(C)CC(OC(=O)CCC(=O)OC2CC(C)(C)N(OC3CCCCC3)C(C)(C)C2)CC(C)(C)N1OC1CCCCC1
113 to 115	CC(C)Nc1cccnc1N1CCN(C(=O)c2ccc(C(=O)NC(C)(C)CO)cc2)CC1
184	CC(C)n1c(=O)n(C(=O)NCC2(O)CCN(CC3(C(=O)O)CCCCC3)CC2)c2ccccc21
136 to 138	COC(=O)c1cc(O)cc(O)c1C
223 to 225	COc1cc(C)c(Cc2cnc(N)nc2N)cc1OC
275 to 278	O=c1[nH]nc(-c2cc(C(F)(F)F)cc(C(F)(F)F)c2)n1-c1cc(Cl)ccc1O
85 to 86	CCCCCCCCCCCC(=O)NCCCCCC(=O)O
71 to 73	COc1ccc2cc([C@H](C)C(=O)OCC(=O)N(C)CC(=O)OCCO[N+](=O)[O-])ccc2c1
156 to 158	NCCNC(=O)Nc1ccc2[nH]ccc2c1
110 to 111	COCN(c1cccc2cc(-c3ncnn3C)n(COC)c12)S(=O)(=O)c1cccs1
102 to 104	CS(=O)(=O)c1ccccc1[N+](=O)[O-]
113 to 114	Cc1cnc(N)cc1C
148 to 150	CCOC(OCC)N1C(=O)C(c2ncnc3cc(OCCOC)c(OC)cc23)c2ccccc21 (stereo unspecified)

More lines, now with the values behind:

SMILES	melting point [°C]
Clc1ccc(-n2ccc(OCc3ccccc3Br)n2)cc1	45
COc1cc2c(cc1Cl)CCN(C)CC2c1ccc(Br)cc1 (stereo unspecified)	116 to 118
CC(=O)c1ccc2c(c1)C1(c3ccccc3-2)c2cc(C(C)=O)ccc2-c2ccc(C(C)=O)cc21	258 to 260
O=C1CC(ON(Cc2ccccc2)Cc2ccccc2)C(=O)N1c1ccccc1 (stereo unspecified)	91 to 93
O=C(O)C(Cl)=C(Cl)C(=O)c1ccccc1	228
CNC(=S)C1(c2cccnc2)OCCCS1 (stereo unspecified)	194
CN(C)C(=O)Cc1nnc2n1-c1ccc(Cl)cc1C(c1ccccc1)=NC2	204 to 206
CSc1ccc(-n2c(-c3ccncc3)nc(SC)c(C#N)c2=O)cc1	227 to 229
Oc1ccc(OC[C@@H](O)CNCCc2ccc(-n3c(-c4ccc(C5CCCCC5)cc4)nc4cccnc43)cc2)cc1	100 to 102
CCOC(=O)Cn1c(-c2ccc(F)cc2)nc2cccnc21	126 to 128
CN(C)Cc1ccc2sc(S(N)(=O)=O)cc2c1	172 to 174
O=C1Cc2ccccc2C(c2cccc(Cl)c2)N1 (stereo unspecified)	133 to 134
CC(Cl)(Cl)C(NC(=O)c1ccc(C(F)(F)F)cc1)NC(=NS(=O)(=O)C(F)(F)F)Nc1cccnc1 (stereo unspecified)	214 to 215
c1ccc(COc2ccc(-c3nc(COc4cccc(CCCCn5ccnc5)c4)co3)cc2)cc1	87 to 88
Oc1ccc(-c2nn(C3CCCC3)c3c(F)cccc23)cc1	131
CCOC(=O)COc1cc2c(c(Cl)c1Cl)C(=O)C(CC)=C2	141 to 143
Cc1nc(-c2ccc(O)cc2)oc1C	202 to 203
O=C(CN1CCSCC1)N1CCN(Cc2ccc3c(c2)-c2[nH]nc(-c4ccsc4)c2C3)CC1	226 to 228
CCOc1cc([C@@H](CS(C)(=O)=O)N2C(=O)c3cccc(NC(=O)COC)c3C2=O)ccc1OC	151 to 153
CN1CCC(c2c[nH]c3ccc(NC(=O)c4ccc(F)cc4Cl)cc23)CC1	159 to 162
CC(CCN1CCCCC1)CC(=O)NNC(=O)N1Cc2ccccc2Oc2ccc(Cl)cc21 (stereo unspecified)	108 to 111
COc1ccc(C=O)cc1OC(=O)c1ccccc1	70 to 72
CC1(C2CCCC2)Cc2cc(OCC(=O)NC(=N)N)c(Cl)c(Cl)c2C1=O (stereo unspecified)	216
O=C(CCCC(=O)N1CCC[C@H]1C(=O)O)c1ccccc1	102 to 105
Clc1cc(N2CCNCC2)ccn1	119 to 120
CCOC(=O)CCc1cn(Cc2ccc(OC)c(OCc3nc(-c4ccccc4)oc3C)c2)nc1OCC	109 to 110
CCCCCS(=O)(=O)NC(=O)/C=C/c1ccc(Oc2ncccn2)cc1Oc1ncc(C(F)(F)F)cc1Cl	80.5 to 82.5
CN(C)C(=O)N(C)c1nnc(S(=O)(=O)N(C)C)s1	101 to 103
CCCCCCC(C)(C)c1cc(OC)c(C2=C[C@@H]3CC[C@@]2(C)C3(C)C)c(OC)c1	35 to 37
